Reference: patent US20230323028A1, “ADHESIVE PHOTOPROTECTIVE COMPOUNDS AND USES THEREOF” (SKINOSIVE, priority 2019, published 2023)

What was measured:
[1] = Bioadhesion in liquid phase: binding to cysteine, assayed by HPLC; conditions: 1 to 2 minutes, Ethanol-1×PBS pH 6.8 (pH 6.0 for compound #23)
Method: The compounds bio adhesion was carried out in solution, for the protein binding, and for the specific binding of sulfhydryl-reactive chemical groups of cysteine. The compounds were mixed either with an equimolar solution of cysteine (two molar equivalent solution of cysteine for the compounds including two maleimides) or an excess of cysteine solution (five or ten times molar compound concentration) and were incubated 1 to 2 minutes in an Ethanol-1×PBS, pH 6.8 solution and in Ethanol-1×PBS, pH 6.0 solution for the compound #23.
The compound and the compound bound to the cysteine were identified by LC-MSD (Agilent 1260 Infinity II equipped with an Uptisphere strategy C18 or SunFire C18 column) and assayed by HPLC using an Agilent Infinity II Prime UHPLC UV detector system. The separation was achieved by using a gradient phase of water and acetonitrile on an Agilent Poroshell 120 EC-C18 column (3×100 mm, 2.7 μM).

[2] = λmax UV absorbance in solution; format: physicochemical
Method: λmax UV absorbance of diethylamino hydroxybenzoyl hexyl benzoate in ethanol/DMSO 9/1 was measured at 357 nm and λmax UV absorbance of Compound #16 was measured at 357 nm.
λmax UV absorbance of diethylamino hydroxybenzoyl hexyl benzoate in ethanol/DMSO 9/1 was measured at 357 nm and λmax UV absorbance of Compound #17 was measured at 357 nm.
λmax UV absorbance of Octocrylene in ethanol/DMSO 9/1 was measured at 305 nm and λmax UV absorbance of Compound #18 was measured at 293 nm.
λmax UV absorbance of Octocrylene in ethanol/DMSO 9/1 was measured at 305 nm and λmax UV absorbance of Compound #19 was measured at 308 nm.
λmax UV absorbance of Ecamsule in Ethanol/H2O/DMSO 5/3/2 was measured at 341 nm and λmax UV absorbance of Compound #20 was measured at 344 nm.
λmax UV absorbance of bemotrizinol in ethanol/benzyl alcohol/DMSO/Phenoxyethanol 63/18/10/9 was measured at 342 nm and λmax UV absorbance of Compound #21 was measured at 342 nm.
λmax UV absorbance of Octocrylene in ethanol was measured at 304 nm and Amax UV absorbance of Compound #23 was measured at 304 nm.

[3] = Adhesion on thiolated polylysine matrix (UV absorbance of coated 96-well microplates); conditions: UV absorbance at 300 nm; overnight incubation in ethanol/PBS (90%/10%); washed 10 times with ethanol
Method: (§1) Polylysine and Polylysine enriched in SH by thiolation of primary amines using Traut's reagent were used for coating 96-well microplates. Compound #23 (OOM) incubated overnight under orbital agitation on the different matrices (n=3 for each condition) (uncoated wells were used as negative controls), in an ethanol/PBS (90%/10%) solution. After incubation, each microplate well was thoroughly washed 10 times with ethanol, before measuring UV absorbance. Whole UV/Visible absorbance spectrum from 220 to 1000 nm were measured in the center of each microplate well. In addition, specific UV absorbance at 300 nm was measured by matrix scan over the whole the well as a 10×10 matrix.

[4] = Adhesion on polylysine matrix, non thiolated (UV absorbance of coated 96-well microplates); conditions: UV absorbance at 300 nm; overnight incubation in ethanol/PBS (90%/10%); washed 10 times with ethanol
Method: as §1

pig skin = experiment: UVB protection ex vivo on pig skin by autofluorescence quenching; conditions: for UVB Fluorescence (Ex300/Em460), autofluorescence of pig skin: 4 h incubation at 37° C. in Dottisol, Mean ± SD, N = 3
Method: UVB protection has been assessed ex vivo on pig skin by measuring the autofluorescence quenching. OOM (Compound #23) and OCR (Octocrylene) were solubilized at the same molar concentration in Dottisol (isosorbide dimethyl ether), then covered 6.25 cm^2 skin square and incubated 4 hours at 37° C., washed or not with 10 mL Ethanol for 5 min on agitation. Then 7 mm diameter skin punches were cut and placed in a black 96-well plate. UVB protection was measured after respectively an excitation at 300 nm and a fluorescence emission was read at 460 nm.

[5] = equimolar cysteine:compound solution (two molar equivalents for compounds with two maleimides)
[6] = excess of cysteine (five or ten times molar compound concentration)
[7] = in ethanol/benzyl alcohol/DMSO/Phenoxyethanol 63/18/10/9
[8] = EtOH Wash (10 mL Ethanol, 5 min)

SMILES	Cysteine-bound compound [1, 5]	Free compound [1, 5]	Cysteine-bound compound [1, 6]	Free compound [1, 6]	λmax UV absorbance ([2]; in ethanol/DMSO 9/1)	other results
CC1(C)C2CCC1(CS(=O)(=O)NCCNC(=O)CCN1C(=O)C=CC1=O)C(=O)/C2=C\c1ccc(/C=C2\C(=O)C3(CS(=O)(=O)NCCNC(=O)CCN4C(=O)C=CC4=O)CCC2C3(C)C)cc1 [Compound #20, 3-(2,5-dioxopyrrol-1-yl)-N-[2-[[(3Z)-3-[[4-[(Z)-[4-[2-[3-(2,5-dioxopyrrol-1-yl)propanoylamino]ethylsulfamoylmethyl]-7,7-dimethyl-3-oxo-norbornan-2-ylidene]methyl]phenyl]methylene]-7,7-dimethyl-2-oxo-norbornan-1-yl]methylsulfonylamino]ethyl]propanamide]	85%	15%	100%	0%	–	λmax UV absorbance ([2]; in Ethanol/H2O/DMSO 5/3/2): 344 nm
COc1ccc(-c2nc(-c3ccc(OCCCNC(=O)CCN4C(=O)C=CC4=O)cc3O)nc(-c3ccc(OCCCNC(=O)CCN4C(=O)C=CC4=O)cc3O)n2)cc1 [Compound #21, 3-(2,5-dioxopyrrol-1-yl)-N-[3-[4-[4-[4-[3-[3-(2,5-dioxopyrrol-1-yl)propanoylamino]propoxy]-2-hydroxy-phenyl]-6-(4-methoxyphenyl)-1,3,5-triazin-2-yl]-3-hydroxy-phenoxy]propyl]propanamide]	–	–	–	–	–	λmax UV absorbance [2, 7]: 342 nm
CC1(C)C2CCC1(CS(=O)(=O)O)C(=O)C2=Cc1ccc(C=C2C(=O)C3(CS(=O)(=O)O)CCC2C3(C)C)cc1 [Ecamsule, terephtalylidene dicamphor sulfonic acid, reference compound]	–	–	–	–	–	λmax UV absorbance ([2]; in Ethanol/H2O/DMSO 5/3/2): 341 nm
CCCCC(CC)COC(=O)C(C#N)=C(c1ccccc1)c1ccccc1 (stereo not shown) [Octocrylene, reference compound]	–	–	–	–	305 nm	λmax UV absorbance ([2]; in ethanol): 304 nm; bio adhesion on thiolated polylysine matrix [3]: did not show a bio adhesion; UVB Fluorescence (Ex300/Em460), autofluorescence of pig skin (pig skin; [8]): 201968 ± 11493; UVB Fluorescence (Ex300/Em460), autofluorescence of pig skin (pig skin; No Wash): 64781 ± 3246; UVB protection after the ethanol washing step (pig skin; ethanol wash): corresponds to the unprotected control
CCCCC(CC)COc1ccc(-c2nc(-c3ccc(OC)cc3)nc(-c3ccc(OCC(CC)CCCC)cc3O)n2)c(O)c1 (stereo not shown) [bemotrizinol, reference compound]	–	–	–	–	–	λmax UV absorbance [2, 7]: 342 nm

Now from value to molecule, other results behind:

Cysteine-bound compound [1, 5]	Free compound [1, 5]	Cysteine-bound compound [1, 6]	Free compound [1, 6]	λmax UV absorbance ([2]; in ethanol/DMSO 9/1)	SMILES	other results
75%	25%	92%	8%	357 nm	CCN(CC)c1ccc(C(=O)c2ccccc2C(=O)OCCOCCNC(=O)CCN2C(=O)C=CC2=O)c(O)c1 [Compound #16, 2-[4-(diethylamino)-2-hydroxybenzoyl]-benzoic acid, 2-[2-[3-(2,5-dioxopyrrol-1-yl)propanoylamino]ethoxy]ethyl ester]	–
78%	22%	–	–	357 nm	CCN(CC)c1ccc(C(=O)c2ccccc2C(=O)OCCNC(=O)CCN2C(=O)C=CC2=O)c(O)c1 [Compound #17, 2-[4-(diethylamino)-2-hydroxy-benzoyl]benzoic acid, 2-[3-(2,5-dioxopyrrol-1-yl)propanoylamino]ethyl ester]	–
73%	27%	99%	1%	293 nm	N#CC(C(=O)NCCNC(=O)CCN1C(=O)C=CC1=O)=C(c1ccccc1)c1ccccc1 [Compound #18, 2-cyano-N-[2-[3-(2,5-dioxopyrrol-1-yl)propanoylamino]ethyl]-3,3-diphenyl-prop-2-enamide]	–
71%	29%	–	–	308 nm	N#CC(C(=O)OCCS(=O)(=O)CCNC(=O)CCN1C(=O)C=CC1=O)=C(c1ccccc1)c1ccccc1 [Compound #19, 2-cyano-3,3-diphenyl-prop-2-enoate, 2-[2-[3-(2,5-dioxopyrrol-1-yl)propanoylamino]ethylsulfonyl]ethyl ester]	–
100%	0%	100%	0%	–	N#CC(C(=O)OCCCCCCCCNC(=O)CCN1C(=O)C=CC1=O)=C(c1ccccc1)c1ccccc1 [Compound #23, 8-(3-(2,5-dioxo-2,5-dihydro-1H-pyrrol-1-yl)propanamido)octyl 2-cyano-3,3-diphenylacrylate]	λmax UV absorbance ([2]; in ethanol): 304 nm; bio adhesion on thiolated polylysine matrix [3]: showed a bio adhesion; bioadhesion on polylysine matrix (non thiolated) [4]: no bioadhesion; UVB Fluorescence (Ex300/Em460), autofluorescence of pig skin (pig skin; [8]): 34870 ± 2729; UVB Fluorescence (Ex300/Em460), autofluorescence of pig skin (pig skin; No Wash): 25544 ± 3797; reduction of UVB protection after ethanol wash compared to the initial protection before washing (pig skin; ethanol wash): 30%; bio adhesion on pig skin (conclusion) (pig skin; retention of UVB protection after ethanol wash): bio adhesive; UVB protection of the pig skin compared with octocrylene (OCR) (pig skin; same molar concentration, no wash): more than two times higher
–	–	–	–	357 nm	CCCCCCOC(=O)c1ccccc1C(=O)c1ccc(N(CC)CC)cc1O [diethylamino hydroxybenzoyl hexyl benzoate, reference compound]	–
